From patent publication US12498382B2, “Biomarkers for vitiligo” (INCYTE CORPORATION, priority 2019, dated 2025)

Test system: HaCaT cells
Assay: Concentrations of inflammatory mediators produced by HaCaT cells stimulated with TNFα and IFNγ in presence/absence of JAK inhibitors (ProCarta)
Type: cell-based, human
Protocol: After 48 hours, cell culture media was removed from 24 well plates and replaced with 250 uL of media containing serial diluted drug, then incubated for 15 minutes at 37° C./5% CO2. […] The final concentration of Recombinant Human Interferon gamma and Recombinant Human Tumor Necrosis Factor alpha was 25 ng/mL of each cytokine. Cytokine stimulation added to wells containing drug brought the final concentrations for each drug treatment to 25 nM, 50 nM, 100 nM, and 200 nM. Treated plates were mixed by gentle agitation for 30 seconds then incubated for 24 hours at 37° C./5% CO2. At the end of the 24 hour incubation media was immediately removed from each plate.
Media was incubated with antibody conjugated beads designed to bind to the epitopes of specific target proteins and identify the bound protein through the bead's distinctive spectral pattern. Biotinylated detection antibodies, designed to bind to different epitopes of the same target proteins, and Streptavidin-PE are added to assay plates to quantify the amount of the target proteins. Assay plates were read on the Luminex 200 and data were expressed as Net Median Fluorescence Intensity. […] The concentration of each protein was extrapolated from the antigen standard curve and concentrations were expressed as pg/mL (Table 15).

[1] = TNFα 25 ng/mL + IFNγ 25 ng/mL, drug 100 nM
[2] = TNFα 25 ng/mL + IFNγ 25 ng/mL, drug 200 nM

SMILES: N#CCC1(n2cc(-c3ncnc4[nH]ccc34)cn2)CN(C2CCN(C(=O)c3ccnc(C(F)(F)F)c3F)CC2)C1 [Cpc B]
- IL15 concentration [1]: 2.58 ± 0.68 pg/mL
- IL17A concentration [1]: 4.84 ± 0.34 pg/mL
- IL18 concentration [1]: 156.06 ± 3.24 pg/mL
- IL21 concentration [1]: 2.36 ± 0.35 pg/mL
- IL22 concentration [1]: 8.03 ± 0.87 pg/mL
- IL23 concentration [1]: 6.44 ± 0.69 pg/mL
- IL27 concentration [1]: 5.36 ± 0.73 pg/mL
- IL31 concentration [1]: 3.35 ± 0.44 pg/mL
- IP-10/CXCL10 concentration [1]: 4050.7 ± 471.31 pg/mL
- LIF concentration [1]: 70.3 ± 3.65 pg/mL
- MCP1 concentration [1]: 15200 ± 0 pg/mL
- MIP1 alpha concentration [1]: 91.52 ± 5.05 pg/mL
- MIP1 beta concentration [1]: 323.13 ± 6.82 pg/mL
- PDGF-BB concentration [1]: 5.4 ± 0.16 pg/mL
- PIGF-1 concentration [1]: 54.67 ± 3.27 pg/mL
- RANTES concentration [1]: 194.21 ± 12.67 pg/mL
- SCF concentration [1]: 4.26 ± 0.17 pg/mL
- SDF-1 alpha concentration [1]: 3471.01 ± 111.77 pg/mL
- TNF alpha concentration [1]: 11722.68 ± 1259.67 pg/mL
- TNF beta concentration [1]: 4 ± 0.51 pg/mL
- VEGF-A concentration [1]: 1262.01 ± 46.28 pg/mL
- VEGF-D concentration [1]: 8.71 ± 0.65 pg/mL
- bNGF concentration [1]: 7.04 ± 0.59 pg/mL
- BDNF concentration [2]: 4.1 ± 0.24 pg/mL
- EGF concentration [2]: 1.52 ± 0.1 pg/mL
- Eotaxin concentration [2]: 10.05 ± 0.19 pg/mL
- FGF-2 concentration [2]: 21.39 ± 1.61 pg/mL
- GM-CSF concentration [2]: 134.13 ± 3.74 pg/mL
- GRO alpha concentration [2]: 563.61 ± 42.17 pg/mL
- HGF concentration [2]: 13.5 ± 0.57 pg/mL
- IFN alpha concentration [2]: 0.26 ± 0 pg/mL
- IFN gamma concentration [2]: 25272.53 ± 3796.83 pg/mL
- IL1RA concentration [2]: 5710.44 ± 269.38 pg/mL
- IL1 alpha concentration [2]: 6.16 ± 0.35 pg/mL
- IL1 beta concentration [2]: 8.43 ± 0.29 pg/mL
- IL2 concentration [2]: 31.86 ± 1.25 pg/mL
- IL4 concentration [2]: 6.42 ± 1.24 pg/mL
- IL5 concentration [2]: 25.88 ± 1.37 pg/mL
- IL6 concentration [2]: 568.73 ± 24.74 pg/mL
- IL7 concentration [2]: 2.09 ± 0.14 pg/mL
- IL8 concentration [2]: 3023.88 ± 193.36 pg/mL
- IL9 concentration [2]: 3.28 ± 0.35 pg/mL
- IL10 concentration [2]: 0.84 ± 0.06 pg/mL
- IL12p70 concentration [2]: 1.87 ± 0.16 pg/mL
- IL13 concentration [2]: 2.52 ± 0.3 pg/mL
- IL15 concentration [2]: 2.57 ± 0.54 pg/mL
- IL17A concentration [2]: 4.43 ± 0.26 pg/mL
- IL18 concentration [2]: 159.36 ± 4.73 pg/mL
- IL21 concentration [2]: 2.47 ± 0.28 pg/mL
- IL22 concentration [2]: 7.74 ± 0.78 pg/mL
- IL23 concentration [2]: 7.41 ± 0.5 pg/mL
- IL27 concentration [2]: 8.04 ± 1.65 pg/mL
- IL31 concentration [2]: 3.93 ± 0.4 pg/mL
- IP-10/CXCL10 concentration [2]: 4071.78 ± 411.22 pg/mL
- LIF concentration [2]: 71.92 ± 2.82 pg/mL
- MCP1 concentration [2]: 17302.89 ± 2102.89 pg/mL
- MIP1 alpha concentration [2]: 83.1 ± 2.77 pg/mL
- MIP1 beta concentration [2]: 318.83 ± 8.71 pg/mL
- PDGF-BB concentration [2]: 5.28 ± 0.15 pg/mL
- PIGF-1 concentration [2]: 54.61 ± 2.69 pg/mL
- RANTES concentration [2]: 183.18 ± 13.92 pg/mL
- SCF concentration [2]: 4.2 ± 0.17 pg/mL
- SDF-1 alpha concentration [2]: 3481.04 ± 134.24 pg/mL
- TNF alpha concentration [2]: 11233.91 ± 945.2 pg/mL
- TNF beta concentration [2]: 4.42 ± 0.45 pg/mL
- VEGF-A concentration [2]: 1232.36 ± 49.33 pg/mL
- VEGF-D concentration [2]: 9.12 ± 0.78 pg/mL
- bNGF concentration [2]: 6.52 ± 0.69 pg/mL
- BDNF concentration (no stimulation, drug 200 nM): 5.35 ± 0.34 pg/mL
- EGF concentration (no stimulation, drug 200 nM): 1.06 ± 0.14 pg/mL
- Eotaxin concentration (no stimulation, drug 200 nM): 2.22 ± 0.09 pg/mL
- FGF-2 concentration (no stimulation, drug 200 nM): 8.5 ± 0.95 pg/mL
- GM-CSF concentration (no stimulation, drug 200 nM): 8.69 ± 1.22 pg/mL
- GRO alpha concentration (no stimulation, drug 200 nM): 228.97 ± 14.45 pg/mL
- HGF concentration (no stimulation, drug 200 nM): 4.44 ± 0.32 pg/mL
- IFN alpha concentration (no stimulation, drug 200 nM): 0.23 ± 0.02 pg/mL
- IFN gamma concentration (no stimulation, drug 200 nM): 3.39 ± 0.69 pg/mL
- IL1RA concentration (no stimulation, drug 200 nM): 502.58 ± 57.22 pg/mL
- IL1 alpha concentration (no stimulation, drug 200 nM): 0.29 ± 0.03 pg/mL
- IL1 beta concentration (no stimulation, drug 200 nM): 0.98 ± 0.14 pg/mL
- IL2 concentration (no stimulation, drug 200 nM): 3.32 ± 0.6 pg/mL
- IL4 concentration (no stimulation, drug 200 nM): 4.61 ± 0.7 pg/mL
- IL5 concentration (no stimulation, drug 200 nM): 2.84 ± 0.38 pg/mL
- IL6 concentration (no stimulation, drug 200 nM): 26.86 ± 2.62 pg/mL
- IL7 concentration (no stimulation, drug 200 nM): 3.03 ± 0.2 pg/mL
- IL8 concentration (no stimulation, drug 200 nM): 261.92 ± 12.12 pg/mL
- IL9 concentration (no stimulation, drug 200 nM): 3.91 ± 0.48 pg/mL
- IL10 concentration (no stimulation, drug 200 nM): 0.32 ± 0.07 pg/mL
- IL12p70 concentration (no stimulation, drug 200 nM): 1.55 ± 0.29 pg/mL
- IL13 concentration (no stimulation, drug 200 nM): 1.14 ± 0.13 pg/mL
- IL15 concentration (no stimulation, drug 200 nM): 2.22 ± 0.42 pg/mL
- IL17A concentration (no stimulation, drug 200 nM): 1.2 ± 0.29 pg/mL
- IL18 concentration (no stimulation, drug 200 nM): 6.04 ± 0.5 pg/mL
- IL21 concentration (no stimulation, drug 200 nM): 2.43 ± 0.31 pg/mL
- IL22 concentration (no stimulation, drug 200 nM): 8.13 ± 0.77 pg/mL
- IL23 concentration (no stimulation, drug 200 nM): 5.8 ± 1.11 pg/mL
- IL27 concentration (no stimulation, drug 200 nM): 7.57 ± 2.22 pg/mL
- IL31 concentration (no stimulation, drug 200 nM): 3.01 ± 0.44 pg/mL
- IP-10/CXCL10 concentration (no stimulation, drug 200 nM): 19.75 ± 0.42 pg/mL
- LIF concentration (no stimulation, drug 200 nM): 23.25 ± 0.99 pg/mL
- MCP1 concentration (no stimulation, drug 200 nM): 1125.31 ± 55.12 pg/mL
- MIP1 alpha concentration (no stimulation, drug 200 nM): 2.63 ± 0.35 pg/mL
- MIP1 beta concentration (no stimulation, drug 200 nM): 113.94 ± 3.76 pg/mL
- PDGF-BB concentration (no stimulation, drug 200 nM): 2.15 ± 0.13 pg/mL
- PIGF-1 concentration (no stimulation, drug 200 nM): 20.17 ± 1.26 pg/mL
- RANTES concentration (no stimulation, drug 200 nM): 8.42 ± 0.51 pg/mL
- SCF concentration (no stimulation, drug 200 nM): 1.93 ± 0.13 pg/mL
- SDF-1 alpha concentration (no stimulation, drug 200 nM): 1003.25 ± 40.97 pg/mL
- TNF alpha concentration (no stimulation, drug 200 nM): 2.4 ± 0.71 pg/mL
- TNF beta concentration (no stimulation, drug 200 nM): 4.7 ± 0.28 pg/mL
- VEGF-A concentration (no stimulation, drug 200 nM): 554.18 ± 29.76 pg/mL
- VEGF-D concentration (no stimulation, drug 200 nM): 3.19 ± 0.57 pg/mL
- bNGF concentration (no stimulation, drug 200 nM): 3.84 ± 0.71 pg/mL
